Data taken from ChEMBL document CHEMBL1201862, “PubChem BioAssay data set” (2004).
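Assay format: 96-well plates, 48-hour exposure. Here, GI50 denotes the concentration required for 50% inhibition of growth.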 The source made the active and inactive calls. Cut-off read from the data, not from the text of the source: active = GI50 up to about 1.1 µM and inactive = higher. Where a SMILES comes first, the peptide text is derived from it. The star is where a group is joined. Cbz = O=C(OCc1ccccc1)*

How the values were obtained:
Assay in all cases: DTP human tumour cell line panel, 48 h
786-0 = system: 786-0
CCRF-CEM = system: CCRF-CEM
HOP-62 = system: HOP-62
HT-29 = system: HT-29
MDA-MB-231 = system: MDA-MB-231
MOLT-4 = system: MOLT-4
Malme-3M = system: Malme-3M
NCI-H226 = system: NCI-H226
OVCAR-3 = system: OVCAR-3
OVCAR-5 = system: OVCAR-5
PC-3 = system: PC-3
SF-539 = system: SF-539
SK-MEL-5 = system: SK-MEL-5
UACC-62 = system: UACC-62
A498 = system: A498
DU-145 = system: DU-145
SK-MEL-28 = system: SK-MEL-28
U-251 = system: U-251
MDA-N = system: MDA-N

Row | SMILES | GI50 (786-0) | GI50 (CCRF-CEM) | GI50 (HOP-62) | GI50 (HT-29) | GI50 (MDA-MB-231) | GI50 (MOLT-4) | GI50 (Malme-3M) | GI50 (NCI-H226) | GI50 (OVCAR-3) | GI50 (OVCAR-5) | GI50 (PC-3) | GI50 (SF-539) | GI50 (SK-MEL-5) | GI50 (UACC-62) | GI50 (A498) | GI50 (DU-145) | GI50 (SK-MEL-28) | GI50 (U-251) | GI50 (MDA-N)
1 | O=S(=O)([N-]c1nc2ccccc2nc1-[n+]1ccccc1)c1ccccc1 | > 100 µM (inactive) | 10.8 µM (inactive) | 46.1 µM (inactive) | > 100 µM (inactive) | 28.9 µM (inactive) | 23.1 µM (inactive) | > 100 µM (inactive) | > 100 µM (inactive) | > 100 µM (inactive) | > 100 µM (inactive) | > 100 µM (inactive) | > 100 µM (inactive) | > 100 µM (inactive) | 93.1 µM (inactive) | – | – | – | – | –
2 | Cn1c(-c2cccc([N+](=O)[O-])c2)[n+](C)c2ccccc21 | > 100 µM (inactive) | > 100 µM (inactive) | > 100 µM (inactive) | 40.9 µM (inactive) | > 100 µM (inactive) | > 100 µM (inactive) | 89.3 µM (inactive) | > 100 µM (inactive) | 30.8 µM (inactive) | > 100 µM (inactive) | 46.8 µM (inactive) | > 100 µM (inactive) | 76.7 µM (inactive) | > 100 µM (inactive) | > 100 µM (inactive) | > 100 µM (inactive) | > 100 µM (inactive) | > 100 µM (inactive) | –
3 | CCOC(=O)C(NC(=O)NCc1ccc(F)cc1)C(F)(F)F (stereo unspecified) | > 100 µM (inactive) | > 100 µM (inactive) | – | > 100 µM (inactive) | – | > 10 µM (inactive) | – | – | – | > 100 µM (inactive) | > 100 µM (inactive) | > 100 µM (inactive) | > 100 µM (inactive) | – | > 100 µM (inactive) | – | > 100 µM (inactive) | > 100 µM (inactive) | > 100 µM (inactive)
4 | CSc1c(C#N)c(O)n(-c2ccc(C)cc2)c(=O)c1C(C)=O | > 100 µM (inactive) | > 100 µM (inactive) | – | > 100 µM (inactive) | > 100 µM (inactive) | > 100 µM (inactive) | > 100 µM (inactive) | > 100 µM (inactive) | > 100 µM (inactive) | 42.8 µM (inactive) | > 100 µM (inactive) | > 100 µM (inactive) | > 100 µM (inactive) | > 100 µM (inactive) | 51.5 µM (inactive) | > 100 µM (inactive) | > 100 µM (inactive) | > 100 µM (inactive) | –
5 | C/C(=N\O)c1ccc2cc(Br)c3ccccc3c2c1 | 15.1 µM (inactive) | 17.5 µM (inactive) | 20.2 µM (inactive) | 2.89 µM (inactive) | 15.3 µM (inactive) | – | 19.8 µM (inactive) | – | 16.9 µM (inactive) | 11.5 µM (inactive) | – | – | 16.8 µM (inactive) | 17.7 µM (inactive) | 17.7 µM (inactive) | 39.4 µM (inactive) | 19.3 µM (inactive) | 14.6 µM (inactive) | 15.7 µM (inactive)
6 | COc1ccc(/N=N/C(=N/NC(=O)c2cc(Cl)ccc2C(=O)c2ccccc2)c2ccc(N(CCC#N)CCC#N)cc2C)cc1 | 18.5 µM (inactive) | 4.54 µM (inactive) | 20.1 µM (inactive) | 21.5 µM (inactive) | 15.1 µM (inactive) | 9.08 µM (inactive) | 26.2 µM (inactive) | 16.2 µM (inactive) | 5.04 µM (inactive) | 18.2 µM (inactive) | 11.4 µM (inactive) | – | 15.5 µM (inactive) | 17.2 µM (inactive) | – | 19.5 µM (inactive) | 25.8 µM (inactive) | 16.4 µM (inactive) | 21.7 µM (inactive)
7 | O=C1c2ccccc2C(=O)N1CC1(C(=O)O)NCCS1(=O)=O (stereo unspecified) | > 100 µM (inactive) | > 100 µM (inactive) | > 100 µM (inactive) | > 100 µM (inactive) | > 100 µM (inactive) | > 100 µM (inactive) | > 100 µM (inactive) | > 100 µM (inactive) | > 100 µM (inactive) | > 100 µM (inactive) | > 100 µM (inactive) | > 100 µM (inactive) | > 100 µM (inactive) | > 100 µM (inactive) | > 100 µM (inactive) | – | > 100 µM (inactive) | > 100 µM (inactive) | > 100 µM (inactive)
8 | O=C(Nc1ccc2[nH]c(C(=O)N3CC(CCl)c4ccc([N+](=O)[O-])cc43)cc2c1)c1cc2ccccc2o1 (stereo unspecified) | > 1100 µM (inactive) | > 1100 µM (inactive) | > 1100 µM (inactive) | > 1100 µM (inactive) | > 1100 µM (inactive) | > 1100 µM (inactive) | > 1100 µM (inactive) | > 1100 µM (inactive) | > 1100 µM (inactive) | 893 µM (inactive) | – | > 1100 µM (inactive) | > 1100 µM (inactive) | > 1100 µM (inactive) | > 1100 µM (inactive) | > 1100 µM (inactive) | > 1100 µM (inactive) | > 1100 µM (inactive) | > 1100 µM (inactive)
9 | CN1CCN(C2=C(Cl)C3(OCCS3)C(F)(F)C2(F)F)CC1 (stereo unspecified) | > 100 µM (inactive) | > 100 µM (inactive) | 46.9 µM (inactive) | 39.4 µM (inactive) | 82 µM (inactive) | 45.4 µM (inactive) | > 100 µM (inactive) | > 100 µM (inactive) | 57 µM (inactive) | > 100 µM (inactive) | – | > 100 µM (inactive) | 16.6 µM (inactive) | > 100 µM (inactive) | > 100 µM (inactive) | > 100 µM (inactive) | – | 39.8 µM (inactive) | > 100 µM (inactive)
10 | Cc1cc(NS(=O)(=O)c2ccc(Nc3c4ccccc4nc4c(C(=O)N5CCN(CCOS(C)(=O)=O)CC5)cccc34)cc2)no1 | > 100 µM (inactive) | 43.4 µM (inactive) | > 100 µM (inactive) | > 100 µM (inactive) | – | 54.1 µM (inactive) | > 100 µM (inactive) | > 100 µM (inactive) | > 100 µM (inactive) | > 100 µM (inactive) | – | > 100 µM (inactive) | > 100 µM (inactive) | > 100 µM (inactive) | > 100 µM (inactive) | – | > 100 µM (inactive) | > 100 µM (inactive) | –
11 | CC12CCC(C(Nc3cc(C(F)(F)F)cc(C(F)(F)F)c3)C1=O)C2(C)C (stereo unspecified) | > 100 µM (inactive) | – | > 100 µM (inactive) | > 100 µM (inactive) | > 100 µM (inactive) | > 100 µM (inactive) | > 100 µM (inactive) | > 100 µM (inactive) | > 100 µM (inactive) | > 100 µM (inactive) | > 100 µM (inactive) | > 100 µM (inactive) | > 100 µM (inactive) | > 100 µM (inactive) | > 100 µM (inactive) | > 100 µM (inactive) | > 100 µM (inactive) | > 100 µM (inactive) | –
12 | CN(Cc1cnc2nc(N)nc(N)c2n1)c1ccc(C(=O)N[C@@H](CCS(=O)(=O)O)C(=O)O)cc1 | 0.0583 µM (active) | > 100 µM (inactive) | 1.99 µM (inactive) | – | > 100 µM (inactive) | 0.745 µM (active) | – | 51.5 µM (inactive) | > 49.5 µM (inactive) | – | 0.0459 µM (active) | 0.614 µM (active) | 0.541 µM (active) | 0.248 µM (active) | – | 0.562 µM (active) | > 100 µM (inactive) | > 100 µM (inactive) | 0.057 µM (active)
13 | O=C1C(Cl)=C(N2CCSCC2)C(=O)c2c(O)ccc(O)c21 | 0.1 µM (active) | – | – | 0.366 µM (active) | 0.308 µM (active) | 0.641 µM (active) | 0.382 µM (active) | 0.347 µM (active) | – | – | 0.1 µM (active) | – | 0.451 µM (active) | 0.525 µM (active) | – | 0.802 µM (active) | 0.857 µM (active) | – | 0.33 µM (active)
14 | CCCCCCCCCCCCCCCCOP(=O)(O)OP(=O)(O)OCC1OC(n2ccc(N)nc2=O)CC1O (stereo unspecified) | > 100 µM (inactive) | > 100 µM (inactive) | > 100 µM (inactive) | > 100 µM (inactive) | > 100 µM (inactive) | > 100 µM (inactive) | > 100 µM (inactive) | > 100 µM (inactive) | > 100 µM (inactive) | > 100 µM (inactive) | > 100 µM (inactive) | > 100 µM (inactive) | > 100 µM (inactive) | > 100 µM (inactive) | > 100 µM (inactive) | – | > 100 µM (inactive) | > 100 µM (inactive) | > 100 µM (inactive)
15 | C[n+]1c(-c2ccc(/C=N/Nc3ccnc(N/N=C/c4ccc(-c5cn6ccccc6[n+]5C)cc4)n3)cc2)cn2ccccc21 | 47.2 µM (inactive) | – | 43.2 µM (inactive) | 24.7 µM (inactive) | > 100 µM (inactive) | > 100 µM (inactive) | – | – | – | 60.4 µM (inactive) | > 100 µM (inactive) | 20 µM (inactive) | 56.4 µM (inactive) | – | – | – | 34.7 µM (inactive) | – | 28.9 µM (inactive)
16 | COc1ccc(C(=O)c2cc(OC)c(OC)c(OC)c2)cc1OC | 4.98 µM (inactive) | 4.37 µM (inactive) | 4.57 µM (inactive) | 3.1 µM (inactive) | 6.17 µM (inactive) | 4.17 µM (inactive) | 5.93 µM (inactive) | – | 3.71 µM (inactive) | 14.6 µM (inactive) | 3.86 µM (inactive) | 2.32 µM (inactive) | 4.44 µM (inactive) | 4.57 µM (inactive) | – | 3.92 µM (inactive) | 5.94 µM (inactive) | 3.94 µM (inactive) | 0.618 µM (active)
17 | CCOC(=O)C(CC(=O)OC)NC(=O)C(CC(=O)OC)NC(=O)C(CC(=O)OC)NC(=O)C(CC(=O)OC)NC(=O)OCc1ccccc1 (stereo unspecified) (Cbz-D(OMe)D(OMe)D(OMe)D(OMe)-OEt; configuration not given here) | > 100 µM (inactive) | – | > 100 µM (inactive) | > 100 µM (inactive) | > 100 µM (inactive) | > 100 µM (inactive) | > 100 µM (inactive) | > 100 µM (inactive) | – | > 100 µM (inactive) | > 100 µM (inactive) | – | > 100 µM (inactive) | > 100 µM (inactive) | > 100 µM (inactive) | – | > 100 µM (inactive) | > 100 µM (inactive) | > 100 µM (inactive)
